Reference: patent US20050019746A1, “Apoptosis-related kinase/GPCRs” (EiRx Therapeutics Limited, priority 2003, published 2005)

Assays:
Format in all cases: cell-based, human
PC3 cells = experiment: Cell Migration Assay (Chemicon ECM550, Boyden Chamber); conditions: 48 hours post siRNA transfection, 24-hour migration, compared to missense and UPA controls
Experimental: Cells are seeded into a 6-well plate and allowed to adhere overnight at 37° C. in a humidified atmosphere containing 5% CO2 in air. Cells are next transfected with siRNA oligonucleotides, at a concentration of 2 μg/ml, against the genes of interest, as described in detail in Example 5. Transfections are continued for 4 hrs after which the transfection solution is removed and cells are refed with fresh medium and allowed incubate overnight. Transfected cells are next harvested for seeding into migration assay as described below.
The Chemicon Cell Migration Assay (ECM550) is used to quantify the number of PC3 cells that successfully migrate across a Boyden Chamber towards a chemoattractant over a 24-hour incubation period. Assessment of PC3 cell migration is performed routinely 48 hours post siRNA Transfection. The effect of reducing the expression of genes of interest is compared to that of a missense control oligomer and to the influence of UPA knockdown, which is reported in the literature to decrease PC3 cell migration. The Migration Assay is performed as per manufacturers inductions. Results are illustrated in FIGS. 39 to 41.
Cells were plated and transfected with the indicated siRNA as described above. Migration of PC3 cells was tracked using a fluorescent dye. Consequently increases in fluorescent units correlates positively with increased migration.

A549 cells = experiment: Anchorage Independence/Soft Agar Assay, A549; design: PERCENTAGE SURVIVAL RELATIVE TO MS, A549, n = 2: tested at 2 µg; conditions: soft agar; for PERCENTAGE SURVIVAL RELATIVE TO MS, A549, n = 1: experiment n = 1; for PERCENTAGE SURVIVAL RELATIVE TO MS, A549, n = 2: experiment n = 2
Summary of the method: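 Cells were transfected for 4 h with 2 μg siRNA against target genes, then seeded at 5×10^4 cells/well in 0.05% agar/medium and grown 12/14 days at 37 °C, 5% CO2. Crystal violet-stained colonies were counted at 4× and morphology assessed; survival expressed relative to missense siRNA control.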

[1] = test system: target gene mRNA in U251 cells; experiment: Knockdown by RNAi, QPCR, U251 cells; conditions: U251, 24 hrs post transfection, relative to missense control
Experimental: These siRNA oligos are initially tested for efficacy in a cell line in which the gene is expressed for example in the Hela, U251, TF1 or DU145 cell lines. Cells are plated at a density of between 7.5-10×10^4 in each well of a 6 well plate and incubated at 37° C. overnight in DMEM culture medium (1× Dulbeccos modified Eagles medium (Sigma D2554), 0.004% folic acid, 4 mM L-glutamine, 0.37% sodium bicarbonate, 0.1 mM sodium pyruvate) containing 10% fetal calf serum (FCS). 2 μg of duplex siRNA is transfected into cells using DMRIE-C reagent (Invitrogen 10459-014) according to methods described in U.S. Patent Application No. 60/498,488. In brief, to prepare 1 ml of a transfection solution 2 μg of siRNA duplex in added to 1 ml of Optimem (Gibco), to which 8 μl of DMRIE C reagent is added. Transfection mix is added directly to the cells and incubated for 4 hrs at 37° C. Post this 4 hr incubation, transfection solution is removed and cells are refed with fresh culture medium and incubated for a further 24 hrs. An additional medium change is required at this point to minimise toxicity of the transfection procedure. Cells are harvested at 24 or 48 hrs post transfection for analysis of mRNA expression. […]
After DMRIE transfections with siRNA Oligos against the apoptosis associated genes identified herein, or controls, cells are harvested at 24 or 48 hours post transfection as stated previously. […] RNA is quantified by spectrophotometric analysis and 1 μg is reverse transcribed into cDNA using SuperScriptII RNAseH-Reverse Transcriptase (Invitrogen 18064-014). […] QPCR primers are designed to amplify a PCR product of approximately 100 to 300 nucleotides in length from the CDS, following the guidelines outlined in the Quantitect SYBR Green PCR handbook from Qiagen.
Two template standards are used for quantitative PCR assessment of mRNA levels: • 1. A control RPS13 i.e. Ribosomal Protein Sub unit 13 (NM_001017) amplified PCR product diluted to [1000,100,10,1 and 0.1 fg] respectively, used to quantify the level of transcript; • 2. […]

Row | Substance | migration of PC3 cells (PC3 cells) | PERCENTAGE SURVIVAL RELATIVE TO MS, A549, n = 1 (A549 cells) | PERCENTAGE SURVIVAL RELATIVE TO MS, A549, n = 2 (A549 cells) | % Knockdown by RNAi, U251 [1]
1 | siRNA FLT4: sense GUACGGCAACCUCUCCAACtt, antisense GUUGGAGAGGUUGCCGUACtt (sense GUACGGCAACCUCUCCAACTT; antisense GUUGGAGAGGUUGCCGUACTT; chemistry not given here) | inhibition of migration |  |  | 
2 | siRNA MAK: sense GAAGCCAAGCAUGGGUGUUtt, antisense AACACCCAUGCUUGGCUUCtt (sense GAAGCCAAGCAUGGGUGUUTT; antisense AACACCCAUGCUUGGCUUCTT; chemistry not given here) | increases the ability of cancer cells to migrate |  |  | 
3 | siRNA MAPKK5: sense GAGGACAGGUUAAGCUGUGtt, antisense CACAGCUUAACCUGUCCUCtt (sense GAGGACAGGUUAAGCUGUGTT; antisense CACAGCUUAACCUGUCCUCTT; chemistry not given here) | no influence on the migration |  |  | 
4 | siRNA MKNK: sense UACAUGGCCCCUGAGGUAGtt, antisense CUACCUCAGGGGCCAUGUAtt (sense UACAUGGCCCCUGAGGUAGTT; antisense CUACCUCAGGGGCCAUGUATT; chemistry not given here) | inhibition of migration | 85% | 21.6% | 
5 | siRNA MPSK1: sense GGGUUAUGCCCACAGAGACtt, antisense GUCUCUGUGGGCAUAACCCtt (sense GGGUUAUGCCCACAGAGACTT; antisense GUCUCUGUGGGCAUAACCCTT; chemistry not given here) | inhibition of migration | 59.4% | 19.5% | 
6 | siRNA NTKL: siRNA duplex, sense UGUGGAGCUGAUGAAGCACtt, antisense GUGCUUCAUCAGCUCCACAtt; same in Tables 9 and 11 (sense UGUGGAGCUGAUGAAGCACTT; antisense GUGCUUCAUCAGCUCCACATT; chemistry not given here) |  |  |  | 37%
7 | siRNA P14KB: sense GCUACGGAAGCUGAUCCUCtt, antisense GAGGAUCAGCUUCCGUAGCtt (sense GCUACGGAAGCUGAUCCUCTT; antisense GAGGAUCAGCUUCCGUAGCTT; chemistry not given here) | no influence on the migration |  |  | 36%
8 | siRNA PCTAIRE: sense GUCAGUGCCCACAAAGACUtt, antisense AGUCUUUGUGGGCACUGACtt (sense GUCAGUGCCCACAAAGACUTT; antisense AGUCUUUGUGGGCACUGACTT; chemistry not given here) | inhibition of migration |  |  | 
9 | siRNA PSKH1: sense GAACCUGCACCGCUCCAUAtt, antisense UAUGGAGCGGUGCAGGUUCtt (sense GAACCUGCACCGCUCCAUATT; antisense UAUGGAGCGGUGCAGGUUCTT; chemistry not given here) | increases the ability of cancer cells to migrate | 65.8% | 32.5% | 
10 | siRNA Survivin: positive control siRNA, sense GAACUGGCCCUUCUUGGAGtt, antisense CUCCAAGAAGGGCCAGUUCtt (sense GAACUGGCCCUUCUUGGAGTT; antisense CUCCAAGAAGGGCCAGUUCTT; chemistry not given here) [reference compound] |  | 53% | 17.7% | 47%
